{
  "source": "patent US9428519B2",
  "about": "“Acylated derivative of homoharringtonine, preparation method therefor, and application thereof” (HANGZHOU BENSHENG PHARMACEUTICAL CO., LTD., priority 2011, dated 2016)",
  "key": {"[1]": {"tested_on": "Kasumi-1 transplanted tumor of leukemia", "assay": "Inhibition of transplanted tumor of leukemia in NOD/SCID mice", "type": "in vivo", "settings": "for Mass of tumor / Tumor Inhibition rate (%): Kasumi-1 in NOD/SCID mice, three times a day, 10 days, Day 31", "protocol": "Leukemia cell lines: Kasumi-1 (acute myeloid leukemia M2 type, AML-M2)\nAnimal: NOD/SCID mice (multiple immunodeficiency mice), 8 weeks, female, purchased from Shanghai Laboratory Animal Center of Chinese Academy of Sciences, China.\nBS-HH-002, wherein BS-HH-002-0.1 indicates a dosage of 0.1 mg/kg each time, and BS-HH-002-0.3 indicates a dosage of 0.3 mg/kg each time.\nUnder sterile conditions, the above tumor cells in the logarithmic growth phase are collected and injected in an amount of 5×10^7/0.2 ml/mice (cell viability>95%) by subcutaneous injection into the right subaxillary of NOD/SCID mice, thus establishing an NOD/SCID mice model bearing transplanted tumor of leukemia. The mice are administered on the third day after the inoculation, wherein the experimental groups are intragastrically administered in an experimentally designed amount and the negative control group is intragastrically administered with sterile water. Each mouse is intragastrically administered three times a day in 0.4 ml each time, at 8:00, 14:00 and 20:00 with 6-hour intervals, and is successively administered for 10 days. The day before administration is Day 0 and the weight and tumor size are determined approximately every 5 days to produce a dynamic plot on weight and tumor growth. On Day 31, the mice are dissected and the tumors are taken out and weighed. The tumor inhibition rate (%) after the application of medicament is determined based on the tumor inhibition rate of the control group being zero.\nThe values determined are presented as mean±standard error (M±SD). The experimental data for each group are analyzed by the One-way ANOVA method of SPSS 18.0 Statistical Software, and p<0.05 is deemed as having statistically significant difference."}, "[2]": {"tested_on": "SK-OV-3 (ovarian cancer cell)", "assay": "MTT growth inhibition of human solid tumor cells, 72 h", "type": "cell-based", "in_short": "(§1)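 MTT determination of viable cells gives percent viability, normalised to untreated wells taken as 100%. Cells (4000 per well) grew 24 h in serum-supplemented DMEM high glucose, then faced graded compound concentrations for 72 h at 37° C under 5% CO2.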"}, "[3]": {"tested_on": "Huh7 (human liver cancer cell)", "assay": "MTT growth inhibition of human solid tumor cells, 72 h", "type": "cell-based", "settings": "Homo sapiens, Huh-7", "in_short": "as §1"}, "PC-3 (prostate cancer)": {"tested_on": "PC-3 (prostate cancer)", "assay": "MTT growth inhibition of human solid tumor cells, 72 h", "type": "cell-based", "in_short": "as §1"}, "[4]": {"tested_on": "Becap37 (human breast cancer cell)", "assay": "MTT growth inhibition of human solid tumor cells, 72 h", "type": "cell-based", "settings": "Homo sapiens", "in_short": "as §1"}, "[5]": {"tested_on": "Hela (human cervical cancer cell)", "assay": "MTT growth inhibition of human solid tumor cells, 72 h", "type": "cell-based", "in_short": "as §1"}, "[6]": {"tested_on": "Hep-2 (laryngeal carcinoma)", "assay": "MTT growth inhibition of human solid tumor cells, 72 h", "type": "cell-based", "settings": "Homo sapiens, HEp-2", "in_short": "as §1"}, "[7]": {"tested_on": "PANC-1 (pancreatic cancer)", "assay": "MTT growth inhibition of human solid tumor cells, 72 h", "type": "cell-based", "in_short": "as §1"}, "[8]": {"tested_on": "U87 MG (malignant glioma cell)", "assay": "MTT growth inhibition of human solid tumor cells, 72 h", "type": "cell-based", "settings": "Homo sapiens, U-87 MG", "in_short": "as §1"}, "[9]": {"tested_on": "MGC 803 (human gastric cancer cell)", "assay": "MTT growth inhibition of human solid tumor cells, 72 h", "type": "cell-based", "settings": "Homo sapiens, MGC-803", "in_short": "as §1"}, "A549 (human lung cancer)": {"tested_on": "A549 (human lung cancer)", "assay": "MTT growth inhibition of human solid tumor cells, 72 h", "type": "cell-based", "settings": "Homo sapiens, A549", "in_short": "as §1"}, "[10]": {"tested_on": "RKO (human colon adenocarcinoma cell)", "assay": "MTT growth inhibition of human solid tumor cells, 72 h", "type": "cell-based", "in_short": "as §1"}, "[11]": {"tested_on": "CNE (nasopharyngeal carcinoma cell)", "assay": "MTT growth inhibition of human solid tumor cells, 72 h", "type": "cell-based", "settings": "Homo sapiens, MTT", "in_short": "as §1"}, "MG63 (osteosarcoma)": {"tested_on": "MG63 (osteosarcoma)", "assay": "MTT growth inhibition of human solid tumor cells, 72 h", "type": "cell-based", "in_short": "as §1"}, "[12]": {"tested_on": "CaES-17 (esophageal cancer cell)", "assay": "MTT growth inhibition of human solid tumor cells, 72 h", "type": "cell-based", "settings": "Homo sapiens, CaEs17", "in_short": "as §1"}},
  "data": [
    {"smiles": "COC(=O)C[C@](O)(CCCC(C)(C)OC(C)=O)C(=O)O[C@@H]1C(OC)=C[C@]23CCCN2CCc2cc4c(cc2[C@H]13)OCO4", "note": "[BS-HH-002, 6-acetylhomoharringtonine]", "values": [
      {"measurement": "Mass of tumor", "setting": "[1]; 0.1 mg/kg/time intragastric", "result": "1.67 ± 0.36", "unit": "g"},
      {"measurement": "Tumor Inhibition rate (%)", "setting": "[1]; 0.1 mg/kg/time intragastric", "result": 43.31, "unit": "%"},
      {"measurement": "Mass of tumor", "setting": "[1]; 0.3 mg/kg/time intragastric", "result": "1.60 ± 0.75", "unit": "g"},
      {"measurement": "Tumor Inhibition rate (%)", "setting": "[1]; 0.3 mg/kg/time intragastric", "result": 45.74, "unit": "%"},
      {"measurement": "tumor inhibition effect on transplanted tumor of leukemia", "setting": "[1]; NOD/SCID mice, FIG. 5 tumor growth curve", "result": "remarkable tumor inhibition effect"},
      {"measurement": "effect on weight of the transplanted tumor of leukemia", "setting": "[1]; NOD/SCID mice, FIG. 6", "result": "substantially reduced"},
      {"measurement": "inhibition rate of transplanted tumor of leukemia", "setting": "[1]; NOD/SCID mice, dosage of both 0.1 and 0.3 mg/kg", "result": "over 40%"},
      {"measurement": "IC50", "setting": "[2]; Homo sapiens, SK-OV-3, MTT", "result": 0.05, "unit": "µg/mL"},
      {"measurement": "IC90", "setting": "[2]; Homo sapiens, SK-OV-3, MTT", "result": "> 16", "unit": "µg/mL"},
      {"measurement": "anti-SK-OV-3 effect relative to homoharringtonine", "setting": "[2]; vs HHT", "result": 2, "unit": "fold"},
      {"measurement": "IC50", "setting": "[3]", "result": 0.0021, "unit": "µg/mL"},
      {"measurement": "IC90", "setting": "[3]", "result": 0.018, "unit": "µg/mL"},
      {"measurement": "IC50", "setting": "PC-3 (prostate cancer); Homo sapiens, MTT", "result": 0.013, "unit": "µg/mL"},
      {"measurement": "IC90", "setting": "PC-3 (prostate cancer); Homo sapiens, MTT", "result": "> 16", "unit": "µg/mL"},
      {"measurement": "anti-PC-3 effect relative to homoharringtonine", "setting": "PC-3 (prostate cancer); vs HHT", "result": "more than 6 fold"},
      {"measurement": "IC50", "setting": "[4]", "result": 0.005, "unit": "µg/mL"},
      {"measurement": "IC90", "setting": "[4]", "result": 16, "unit": "µg/mL"},
      {"measurement": "IC50", "setting": "[5]; Homo sapiens, HeLa, MTT", "result": 0.0077, "unit": "µg/mL"},
      {"measurement": "IC90", "setting": "[5]; Homo sapiens, HeLa, MTT", "result": 16, "unit": "µg/mL"},
      {"measurement": "anti-Hela effect relative to homoharringtonine", "setting": "[5]; vs HHT", "result": "more than 2.5 fold"},
      {"measurement": "IC50", "setting": "[6]", "result": 0.0037, "unit": "µg/mL"},
      {"measurement": "IC90", "setting": "[6]", "result": "> 16", "unit": "µg/mL"},
      {"measurement": "IC50", "setting": "[7]; Homo sapiens, PANC-1, MTT", "result": 0.012, "unit": "µg/mL"},
      {"measurement": "IC90", "setting": "[7]; Homo sapiens, PANC-1, MTT", "result": "> 16", "unit": "µg/mL"},
      {"measurement": "anti-PANC-1 effect relative to homoharringtonine", "setting": "[7]; vs HHT", "result": "more than 3 fold"},
      {"measurement": "IC50", "setting": "[8]", "result": 0.002, "unit": "µg/mL"},
      {"measurement": "IC90", "setting": "[8]", "result": 0.012, "unit": "µg/mL"},
      {"measurement": "IC50", "setting": "[9]", "result": 0.008, "unit": "µg/mL"},
      {"measurement": "IC90", "setting": "[9]", "result": 0.056, "unit": "µg/mL"},
      {"measurement": "IC50", "setting": "A549 (human lung cancer)", "result": 0.013, "unit": "µg/mL"},
      {"measurement": "IC90", "setting": "A549 (human lung cancer)", "result": "> 16", "unit": "µg/mL"},
      {"measurement": "IC50", "setting": "[10]; Homo sapiens, MTT", "result": 0.002, "unit": "µg/mL"},
      {"measurement": "IC90", "setting": "[10]; Homo sapiens, MTT", "result": 0.01, "unit": "µg/mL"},
      {"measurement": "anti-RKO effect relative to homoharringtonine", "setting": "[10]; vs HHT", "result": "substantially superior"},
      {"measurement": "IC50", "setting": "[11]", "result": 0.024, "unit": "µg/mL"},
      {"measurement": "IC90", "setting": "[11]", "result": "> 16", "unit": "µg/mL"},
      {"measurement": "IC50", "setting": "MG63 (osteosarcoma); Homo sapiens, MG-63, MTT", "result": 0.006, "unit": "µg/mL"},
      {"measurement": "IC90", "setting": "MG63 (osteosarcoma); Homo sapiens, MG-63, MTT", "result": 0.42, "unit": "µg/mL"},
      {"measurement": "anti-MG63 effect relative to homoharringtonine", "setting": "MG63 (osteosarcoma); vs HHT", "result": "substantially superior"},
      {"measurement": "IC50", "setting": "[12]", "result": 0.02, "unit": "µg/mL"},
      {"measurement": "IC90", "setting": "[12]", "result": "> 16", "unit": "µg/mL"}
    ]}
  ]
}
